Experimental data published in US9150577B2, “Heterocyclic compounds containing an indole core” (Boehringer Ingelheim International GmbH, priority 2009, dated 2015).

Biological target: Human RSK2 (Homo sapiens (Human), UniProt P51812)
Test: Human RSK2 assay (Kinase Glo Plus, residual ATP);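 further: recombinant human RSK2 phosphorylating a substrate peptide, 90 min at 28 °C, leftover ATP read by luminescence, RLU scaled between no-kinase background and uninhibited kinase controls, 4-parameter fit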
Assay type: biochemical

Chain of Human RSK2 (P51812 whole entry): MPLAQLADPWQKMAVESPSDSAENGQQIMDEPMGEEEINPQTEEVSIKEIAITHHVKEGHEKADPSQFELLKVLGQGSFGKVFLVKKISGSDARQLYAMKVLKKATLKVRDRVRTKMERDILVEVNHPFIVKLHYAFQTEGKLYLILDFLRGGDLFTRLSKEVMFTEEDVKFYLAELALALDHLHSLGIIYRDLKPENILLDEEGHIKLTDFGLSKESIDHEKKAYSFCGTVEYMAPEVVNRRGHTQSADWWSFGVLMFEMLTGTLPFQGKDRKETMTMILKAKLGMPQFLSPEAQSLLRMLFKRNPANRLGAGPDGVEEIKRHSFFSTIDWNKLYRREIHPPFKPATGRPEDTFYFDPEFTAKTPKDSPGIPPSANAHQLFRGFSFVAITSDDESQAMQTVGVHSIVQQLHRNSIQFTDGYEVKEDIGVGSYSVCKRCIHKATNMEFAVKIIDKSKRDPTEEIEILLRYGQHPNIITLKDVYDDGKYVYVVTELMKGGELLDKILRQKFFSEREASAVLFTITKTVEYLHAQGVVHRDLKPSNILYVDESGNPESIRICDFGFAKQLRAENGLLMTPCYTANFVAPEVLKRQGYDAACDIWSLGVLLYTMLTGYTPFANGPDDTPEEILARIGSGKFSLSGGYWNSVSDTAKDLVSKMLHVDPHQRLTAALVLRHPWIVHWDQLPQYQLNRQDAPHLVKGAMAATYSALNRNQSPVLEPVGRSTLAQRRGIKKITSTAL

SMILES | IC50 [nM]
Cc1cc(NC(=O)c2ccc3cc4n(c3c2)C(C)CNC4=O)no1 (centres unmarked) [Example 174, 4-methyl-N-(5-methyl-1,2-oxazol-3-yl)-1-oxo-1,2,3,4-tetrahydropyrazino[1,2-a]indole-7-carboxamide] | 34
CC(C)(C)c1cc(NC(=O)c2ccc3cc4n(c3c2)CCCNC4=O)no1 [Example 175, N-(5-tert-butyl-1,2-oxazol-3-yl)-1-oxo-2,3,4,5-tetrahydro-1H-[1,4]diazepino[1,2-a]indole-8-carboxamide] | 150
CC1CNC(=O)c2cc3ccc(C(=O)Nc4cc(C(C)(C)C)on4)cc3n21 (centres unmarked) [Example 176, N-(5-tert-butyl-1,2-oxazol-3-yl)-4-methyl-1-oxo-1,2,3,4-tetrahydropyrazino[1,2-a]indole-7-carboxamide] | 25
CC1CNC(=O)c2cc3ccc(C(=O)Nc4cc5ccccc5[nH]4)cc3n21 (centres unmarked) [Example 177, N-(1H-indol-2-yl)-4-methyl-1-oxo-1,2,3,4-tetrahydropyrazino[1,2-a]indole-7-carboxamide] | 8
O=C(Nc1ccccc1)c1ccc2cc3n(c2c1)CCCNC3=O [Example 178, 1-oxo-N-phenyl-2,3,4,5-tetrahydro-1H-[1,4]diazepino[1,2-a]indole-8-carboxamide] | 290
CCc1cc(NC(=O)c2ccc3cc4n(c3c2)CCCNC4=O)no1 [Example 181, N-(5-ethyl-1,2-oxazol-3-yl)-1-oxo-2,3,4,5-tetrahydro-1H-[1,4]diazepino[1,2-a]indole-8-carboxamide] | 34.5
Cc1cc(NC(=O)c2ccc3cc4n(c3c2)CC(C)CNC4=O)no1 (centres unmarked) [Example 182, 4-methyl-N-(5-methyl-1,2-oxazol-3-yl)-1-oxo-2,3,4,5-tetrahydro-1H-[1,4]diazepino[1,2-a]indole-8-carboxamide] | 150
O=C(Nc1cc(C2CC2)on1)c1ccc2cc3n(c2c1)CCCNC3=O [Example 183, N-(5-cyclopropyl-1,2-oxazol-3-yl)-1-oxo-2,3,4,5-tetrahydro-1H-[1,4]diazepino[1,2-a]indole-8-carboxamide] | 26
O=C(Nc1cc(-c2ccc(F)cc2)on1)c1ccc2cc3n(c2c1)CCCNC3=O [Example 184, N-[5-(4-fluorophenyl)-1,2-oxazol-3-yl]-1-oxo-2,3,4,5-tetrahydro-1H-[1,4]diazepino[1,2-a]indole-8-carboxamide] | 155
N#Cc1ccc(NC(=O)c2ccc3cc4n(c3c2)CCCNC4=O)cc1 [Example 185, N-(4-cyanophenyl)-1-oxo-2,3,4,5-tetrahydro-1H-[1,4]diazepino[1,2-a]indole-8-carboxamide] | 106
CC(=O)c1cccc(NC(=O)c2ccc3cc4n(c3c2)CCCNC4=O)c1 [Example 187, N-(3-acetylphenyl)-1-oxo-2,3,4,5-tetrahydro-1H-[1,4]diazepino[1,2-a]indole-8-carboxamide] | 160
Cc1nn(C)c2ncc(NC(=O)c3ccc4cc5n(c4c3)CCCNC5=O)cc12 [Example 189, N-(1,3-dimethyl-1H-pyrazolo[3,4-b]pyridin-5-yl)-1-oxo-2,3,4,5-tetrahydro-1H-[1,4]diazepino[1,2-a]indole-8-carboxamide] | 1300
O=C(Nc1cnc2ccccc2c1)c1ccc2cc3n(c2c1)CCCNC3=O [Example 190, 1-oxo-N-(quinolin-3-yl)-2,3,4,5-tetrahydro-1H-[1,4]diazepino[1,2-a]indole-8-carboxamide] | 34
CC(C)(C)n1cc(NC(=O)c2ccc3cc4n(c3c2)CCCNC4=O)cn1 [Example 191, N-(1-tert-butyl-1H-pyrazol-4-yl)-1-oxo-2,3,4,5-tetrahydro-1H-[1,4]diazepino[1,2-a]indole-8-carboxamide] | 48
O=C(Nc1cnn(-c2ccccc2)c1)c1ccc2cc3n(c2c1)CCCNC3=O [Example 192, 1-oxo-N-(1-phenyl-1H-pyrazol-4-yl)-2,3,4,5-tetrahydro-1H-[1,4]diazepino[1,2-a]indole-8-carboxamide] | 18
Cc1noc(NC(=O)c2ccc3cc4n(c3c2)CCCNC4=O)c1Cl [Example 194, N-(4-chloro-3-methyl-1,2-oxazol-5-yl)-1-oxo-2,3,4,5-tetrahydro-1H-[1,4]diazepino[1,2-a]indole-8-carboxamide] | 3300
CC(C)(C)c1cc(NC(=O)c2ccc3cc4n(c3c2)CCCNC4=O)on1 [Example 195, N-(3-tert-butyl-1,2-oxazol-5-yl)-1-oxo-2,3,4,5-tetrahydro-1H-[1,4]diazepino[1,2-a]indole-8-carboxamide] | 44
CC1(c2cc(NC(=O)c3ccc4cc5n(c4c3)CCCNC5=O)on2)CC1 [Example 197, N-[3-(1-methylcyclopropyl)-1,2-oxazol-5-yl]-1-oxo-2,3,4,5-tetrahydro-1H-[1,4]diazepino[1,2-a]indole-8-carboxamide] | 27
Cc1ccc(-c2cc(NC(=O)c3ccc4cc5n(c4c3)CCCNC5=O)on2)cc1 [Example 199, N-[3-(4-methylphenyl)-1,2-oxazol-5-yl]-1-oxo-2,3,4,5-tetrahydro-1H-[1,4]diazepino[1,2-a]indole-8-carboxamide] | 115

SMILES | IC50 [nM]
Cc1cccc(-c2cc(NC(=O)c3ccc4cc5n(c4c3)CCCNC5=O)on2)c1 [Example 200, N-[3-(3-methylphenyl)-1,2-oxazol-5-yl]-1-oxo-2,3,4,5-tetrahydro-1H-[1,4]diazepino[1,2-a]indole-8-carboxamide] | 160
CC1(C)CNC(=O)c2cc3ccc(C(=O)Nc4cc(-c5ccccc5)no4)cc3n21 [Example 201, 4,4-dimethyl-1-oxo-N-(3-phenyl-1,2-oxazol-5-yl)-1,2,3,4-tetrahydropyrazino[1,2-a]indole-7-carboxamide] | 15
CCCc1cc(NC(=O)c2ccc3cc4n(c3c2)CCCNC4=O)on1 [Example 202, 1-oxo-N-(3-propyl-1,2-oxazol-5-yl)-2,3,4,5-tetrahydro-1H-[1,4]diazepino[1,2-a]indole-8-carboxamide] | 16
O=C(Nc1ccc2scnc2c1)c1ccc2cc3n(c2c1)CCCNC3=O [Example 203, N-(1,3-benzothiazol-5-yl)-1-oxo-2,3,4,5-tetrahydro-1H-[1,4]diazepino[1,2-a]indole-8-carboxamide] | 180
COc1cc(NC(=O)c2ccc3cc4n(c3c2)CCCNC4=O)ccn1 [Example 204, N-(2-methoxypyridin-4-yl)-1-oxo-2,3,4,5-tetrahydro-1H-[1,4]diazepino[1,2-a]indole-8-carboxamide] | 17
Cc1nc2ccc(NC(=O)c3ccc4cc5n(c4c3)CCCNC5=O)cc2s1 [Example 205, N-(2-methyl-1,3-benzothiazol-6-yl)-1-oxo-2,3,4,5-tetrahydro-1H-[1,4]diazepino[1,2-a]indole-8-carboxamide] | 10
COc1ccnc(NC(=O)c2ccc3cc4n(c3c2)CCCNC4=O)c1 [Example 206, N-(4-methoxypyridin-2-yl)-1-oxo-2,3,4,5-tetrahydro-1H-[1,4]diazepino[1,2-a]indole-8-carboxamide] | 96
O=C(Nc1cc(C(F)(F)F)no1)c1ccc2cc3n(c2c1)CCCNC3=O [Example 207, 1-oxo-N-[3-(trifluoromethyl)-1,2-oxazol-5-yl]-2,3,4,5-tetrahydro-1H-[1,4]diazepino[1,2-a]indole-8-carboxamide] | 85
CC(C)(CO)c1cc(NC(=O)c2ccc3cc4n(c3c2)CCCNC4=O)on1 [Example 208, N-[3-(1-hydroxy-2-methylpropan-2-yl)-1,2-oxazol-5-yl]-1-oxo-2,3,4,5-tetrahydro-1H-[1,4]diazepino[1,2-a]indole-8-carboxamide] | 96
O=C(Nc1cc(C2CCCCC2)no1)c1ccc2cc3n(c2c1)CCCNC3=O [Example 209, N-(3-cyclohexyl-1,2-oxazol-5-yl)-1-oxo-2,3,4,5-tetrahydro-1H-[1,4]diazepino[1,2-a]indole-8-carboxamide] | 39
O=C(Nc1cc(-c2cccnc2)no1)c1ccc2cc3n(c2c1)CCCNC3=O [Example 210, 1-oxo-N-[3-(pyridin-3-yl)-1,2-oxazol-5-yl]-2,3,4,5-tetrahydro-1H-[1,4]diazepino[1,2-a]indole-8-carboxamide] | 30
O=C(Nc1cc(-c2ccccc2)on1)c1ccc2cc3n(c2c1)CCCNC3=O [Example 211, 1-oxo-N-(5-phenyl-1,2-oxazol-3-yl)-2,3,4,5-tetrahydro-1H-[1,4]diazepino[1,2-a]indole-8-carboxamide] | 290
O=C(Nc1cc(Cc2ccccc2)on1)c1ccc2cc3n(c2c1)CCCNC3=O [Example 212, N-(5-benzyl-1,2-oxazol-3-yl)-1-oxo-2,3,4,5-tetrahydro-1H-[1,4]diazepino[1,2-a]indole-8-carboxamide] | 30
CC(C)c1cc(NC(=O)c2ccc3cc4n(c3c2)CCCNC4=O)no1 [Example 213, 1-oxo-N-[5-(propan-2-yl)-1,2-oxazol-3-yl]-2,3,4,5-tetrahydro-1H-[1,4]diazepino[1,2-a]indole-8-carboxamide] | 66
NC(=O)c1ccccc1NC(=O)c1ccc2cc3n(c2c1)CCCNC3=O [Example 215, N-(2-carbamoylphenyl)-1-oxo-2,3,4,5-tetrahydro-1H-[1,4]diazepino[1,2-a]indole-8-carboxamide] | 21
O=C(Nc1ccccc1Cl)c1ccc2cc3n(c2c1)CCCNC3=O [Example 216, N-(2-chlorophenyl)-1-oxo-2,3,4,5-tetrahydro-1H-[1,4]diazepino[1,2-a]indole-8-carboxamide] | 6000
N#Cc1ccccc1NC(=O)c1ccc2cc3n(c2c1)CCCNC3=O [Example 217, N-(2-cyanophenyl)-1-oxo-2,3,4,5-tetrahydro-1H-[1,4]diazepino[1,2-a]indole-8-carboxamide] | 7000
O=C(Nc1cc(-c2ccccc2)[nH]n1)c1ccc2cc3n(c2c1)CCCNC3=O [Example 218, 1-oxo-N-(5-phenyl-1H-pyrazol-3-yl)-2,3,4,5-tetrahydro-1H-[1,4]diazepino[1,2-a]indole-8-carboxamide] | 40
Cc1cc(NC(=O)c2ccc3cc4n(c3c2)CCCNC4=O)n[nH]1 [Example 219, N-(5-methyl-1H-pyrazol-3-yl)-1-oxo-2,3,4,5-tetrahydro-1H-[1,4]diazepino[1,2-a]indole-8-carboxamide] | 68
